Starred links: 1 amine or outer side, 2 acyl side, 3 side chain; linkers in the order of their positions; H or OH if unused. Non-standard residues stand in square brackets, D forms with d. Residues, ends and D or L forms follow the SMILES beside them. *: point of attachment. Dolaproine = CO[C@@H]([C@@H]1CCCN1)[C@@H](C)C(=O)O; Dil = CC[C@H](C)[C@H](NC)[C@@H](CC(=O)O)OC; PABC = O=C(OCc1ccc(N[*:1])cc1)[*:2]; X1 = O=C(CCCC(=O)*)ON1C(=O)CCC1=O; X2 = C[C@@H](N*)[C@@H](O)c1ccccc1; Cit = NC(=O)NCCC[C@H](N)C(=O)O; NMeV = CN[C@H](C(=O)O)C(C)C
Key:
Assay type in all cases: in vivo, Mus musculus
CTG-0363 = assay: Champions TumorGraft NSCLC PDX efficacy, model CTG-0363
Description: (§1) Mice were implanted subcutaneously into the left flank with tumor fragments from one of the various models. After tumors grew to an average of 150-300 mm^3, mice were treated by IV administration Q7Dx4 (n=2) with vehicle or 3 mg/kg of BT5528. Effects on tumor growth were evaluated by measuring percent tumor growth inhibition (% TGI), and the number of complete responders (CR), partial responders (PR), and tumor-free survivors (TFS). Tolerability was assessed by body weight loss, lethality, and clinical signs of adverse treatment-related side effects. Tumor volumes and body weights were measured twice a week.
(§2) Dosing solutions of BT5528 […] were pre-formulated. These dosing solutions were stored at −80° C. in the dark. On each day of dosing, a frozen aliquot of each test agent was thawed, stored at 2-8° C. and used for dosing.
(§3) The animals used in this study are described below: • Species: Mus musculus • Strain: Athymic Nude-Foxn1^nu (immune-compromised) • Source: Envigo (Indianapolis, Ind., USA) • Number of animals per group: 2 • Age and sex: At least 6-8 weeks of age at start of dosing, female • Weight: At least 18 grams at start of dosing • Acclimation period: 3 days
(§4) Stock mice were implanted with tumor cells from Champions TumorGraft® models CTG-0160, CTG-0170, CTG-0178, CTG-0192, CTG-0363, CTG-0808, CTG-0838, CTG-0848, CTG-1212, CTG-1502, CTG-1535, CTG-2011, CTG-2393, CTG-2539 or CTG-2540. After the tumors reached 1000-1500 mm^3, they were harvested and the tumor fragments (approximately 5×5×5 mm^3) were implanted SC in the left flank of the female study mice. Each animal was implanted with a specific passage lot and documented. Tumor growth was monitored twice a week using digital calipers and the tumor volume (TV) was calculated using the formula (0.52×[length×width^2]). When the TV reached an average volume of 150-300 mm^3, animals were matched by tumor size and assigned into Vehicle Control and treatment groups (n=2/group) and dosing was initiated on Day 0. After the initiation of dosing on Day 0, animals were weighed twice per week using a digital scale and TV was measured twice per week and also on the final day of study. The study was completed when the mean tumor volume of Vehicle Control reached 1500 mm^3 or up to Day 60, whichever occurred first.
(§5) Beginning on Day 0, animals were observed daily and weighed twice weekly using a digital scale; data including individual and mean gram weights, mean percent weight change versus Day 0 (% vD0) were recorded for each group and % vD0 plotted at study completion. […] Treatment resulting in a mean % vD0>20% and/or >10% mortality was considered above the maximum tolerated dose. Maximum mean % vD0 (weight nadir) for each treatment group was reported at study completion.
(§6) Inhibition of tumor growth was determined by calculating the percent TGI (100%×[1−(final MTV−initial MTV of a treated group)/(final MTV−initial MTV of the control group)]). Treatment started on Day 0.
(§7) Additional endpoints used to evaluate efficacy were: the number of complete responders (CR), partial responders (PR), and tumor-free survivors (TFS). PRs were considered exclusive of CRs, as were TFS.
(§8) Statistical analyses of anti-tumor efficacy were performed using one-way ANOVA followed by Dunnett's multiple comparisons test (GraphPad Prism version 8.2.0). Significant p-values=<0.05.
(§9) Animals were dosed according to the schedule on Table 7-1. The study was terminated on Day 28.

[1] = test system: 15 low-passage Champions TumorGraft models of human non-small cell lung cancer; assay: Panel of 15 NSCLC patient derived tumor xenografts (Champions PDX indication screen), overall; conditions: weekly 3 mpk
Description: This study was conducted to evaluate the in vivo antitumor activity of BT5528 as monotherapy in 15 low-passage Champions TumorGraft® models.
as §1, with “week. […]” for “week.”
Stock mice were implanted with tumor cells from Champions TumorGraft® models CTG-0160, CTG-0170, CTG-0178, CTG-0192, CTG-0363, CTG-0808, CTG-0838, CTG-0848, CTG-1212, CTG-1502, CTG-1535, CTG-2011, CTG-2393, CTG-2539 or CTG-2540. […] Tumor growth was monitored twice a week using digital calipers and the tumor volume (TV) was calculated using the formula (0.52×[length×width^2]). […] After the initiation of dosing on Day 0, animals were weighed twice per week using a digital scale and TV was measured twice per week and also on the final day of study. […]

CTG-0808 = assay: Champions TumorGraft NSCLC PDX efficacy, model CTG-0808
Description: as §1, §2, §3, §4, §5, §6, §7, §8
Animals were dosed according to the schedule on Table 7-1. The Vehicle Control reached endpoint on Day 14 and the study was terminated on Day 28.

CTG-0838 = assay: Champions TumorGraft NSCLC PDX efficacy, model CTG-0838
Description: as §1, §2, §3, §4, §5, §6, §7, §8
Animals were dosed according to the schedule on Table 7-1. The study was terminated on Day 27.

CTG-2393 = assay: Champions TumorGraft NSCLC PDX efficacy, model CTG-2393
Description: as §1, §2, §3, §4, §5, §6, §7, §8, §9

CTG-1502 = assay: Champions TumorGraft NSCLC PDX efficacy, model CTG-1502
Description: as §1, §2, §3, §4, §5, §6, §7, §8
Animals were dosed according to the schedule on Table 7-1. The Vehicle Control reached endpoint on Day 17 and the study was terminated on Day 28.

[2] = CTG-0363, 3 mg/kg IV Q7Dx4, Day 0-28
[3] = CTG-0808, 3 mg/kg IV Q7Dx4, Day 0-28
[4] = CTG-0838, 3 mg/kg IV Q7Dx4, Day 0-27
[5] = CTG-2393, 3 mg/kg IV Q7Dx4, Day 0-28
[6] = CTG-1502, 3 mg/kg IV Q7Dx4, Day 0-28

SMILES: CC[C@H](C)[C@@H]([C@@H](CC(=O)N1CCC[C@H]1[C@H](OC)[C@@H](C)C(=O)N[C@H](C)[C@@H](O)c1ccccc1)OC)N(C)C(=O)[C@@H](NC(=O)[C@H](C(C)C)N(C)C(=O)OCc1ccc(NC(=O)[C@H](CCCNC(N)=O)NC(=O)[C@@H](NC(=O)CCCC(=O)ON2C(=O)CCC2=O)C(C)C)cc1)C(C)C [BT5528] (X1-V[Cit][PABC][NMeV]V[Dil][Dolaproine]-X2)
- mean body weight loss (CTG-0363; 3 mg/kg IV Q7Dx4): no mean body weight loss
- MTV (mean tumor volume) (CTG-0363; 3 mg/kg IV Q7Dx4, Day 28): 1609±18 mm^3
- TGI (CTG-0363; 3 mg/kg IV Q7Dx4, Day 28): 26%
- # CR (complete responders) (CTG-0363; [2]): 0/0/0
- # PR (partial responders) (CTG-0363; [2]): 0/0/0
- # TFS (tumor-free survivors) (CTG-0363; [2]): 0/0/0
- % TGI (CTG-0363; CTG-0363, 3 mg/kg IV Q7Dx4, Day 28): 26%
- Day 28 Tumor Volume Mean TV ± SEM (CTG-0363; CTG-0363, BT5528 3 mg/kg IV Q7Dx4, Day 28, n=2): 1609 ± 18 mm^3
- models with tumor growth inhibition of 50% or more [1]: 10 out of 15
- MTV (mean tumor volume) (CTG-0808; 3 mg/kg IV Q7Dx4, Day 14): 541±4 mm^3
- TGI (CTG-0808; 3 mg/kg IV Q7Dx4, Day 14): 76%
- # CR (complete responders) (CTG-0808; [3]): 0/0/0
- # PR (partial responders) (CTG-0808; [3]): 0/0/0
- # TFS (tumor-free survivors) (CTG-0808; [3]): 0/0/0
- % TGI (CTG-0808; CTG-0808, 3 mg/kg IV Q7Dx4, Day 14): 76%
- Day 14 Tumor Volume Mean TV ± SEM (CTG-0808; CTG-0808, BT5528 3 mg/kg IV Q7Dx4, Day 14, n=2): 541 ± 4 mm^3
- mean body weight loss (CTG-0838; 3 mg/kg IV Q7Dx4): no mean body weight loss
- MTV (mean tumor volume) (CTG-0838; 3 mg/kg IV Q7Dx4, Day 27): 269±128 mm^3
- TGI (CTG-0838; 3 mg/kg IV Q7Dx4, Day 27): 97%
- # CR (complete responders) (CTG-0838; [4]): 0/0/0
- # PR (partial responders) (CTG-0838; [4]): 0/0/0
- # TFS (tumor-free survivors) (CTG-0838; [4]): 0/0/0
- % TGI (CTG-0838; CTG-0838, 3 mg/kg IV Q7Dx4, Day 27): 97%
- Day 27 Tumor Volume Mean TV ± SEM (CTG-0838; CTG-0838, BT5528 3 mg/kg IV Q7Dx4, Day 27, n=2): 269 ± 128 mm^3
- MTV (mean tumor volume) (CTG-2393; 3 mg/kg IV Q7Dx4, Day 28): 158±25 mm^3
- TGI (CTG-2393; 3 mg/kg IV Q7Dx4, Day 28): 107%
- # CR (complete responders) (CTG-2393; [5]): 0/0/0
- # PR (partial responders) (CTG-2393; [5]): 0/0/0
- # TFS (tumor-free survivors) (CTG-2393; [5]): 0/0/0
- % TGI (CTG-2393; CTG-2393, 3 mg/kg IV Q7Dx4, Day 28): 107%
- Day 28 Tumor Volume Mean TV ± SEM (CTG-2393; CTG-2393, BT5528 3 mg/kg IV Q7Dx4, Day 28, n=2): 158 ± 25 mm^3
- MTV (mean tumor volume) (CTG-1502; 3 mg/kg IV Q7Dx4, Day 17): 976±229 mm^3
- TGI (CTG-1502; 3 mg/kg IV Q7Dx4, Day 17): 48%
- # CR (complete responders) (CTG-1502; [6]): 0/0/0
- # PR (partial responders) (CTG-1502; [6]): 0/0/0
- # TFS (tumor-free survivors) (CTG-1502; [6]): 0/0/0
- % TGI (CTG-1502; CTG-1502, 3 mg/kg IV Q7Dx4, Day 17): 48%
- Day 17 Tumor Volume Mean TV ± SEM (CTG-1502; CTG-1502, BT5528 3 mg/kg IV Q7Dx4, Day 17, n=2): 976 ± 229 mm^3

From patent US20220184222A1, “BICYCLE TOXIN CONJUGATES AND USES THEREOF” (BicycleTx Limited, priority 2019, published 2022)
